How the values were obtained:
[1] = test system: lymphedema-induced mouse; experiment: Lymphedema size after daily injection into the edema site of lymphedema-induced mice (caliper, thigh cross-sectional area); format: in vivo; conditions: measured every day, compared to control group
Procedure: (§1) As mice, Outbred Mice ICR originating from Charles River Laboratories (Wilmington, Mass.) were used. 3 μl of 2% methylene blue as a staining dye for staining lymph nodes and lymphatic vessels was injected into the top of a right foot. After the injection, the right foot was massaged for about 3 minutes to allow a flow of the staining dye through lymphatic vessels to stain the lymphatic system. Zoletil50 (0.6 mg/kg) and Rompun (0.4 mg/kg), which are commercially provided by Bayer Korea, were administered as anesthetic drugs at the maximum content of 100 μl by intraperitoneal injection.
(§2) Specifically, a mouse was anesthetized with the anesthetic drugs (Zoletil50, Rompun), and its chest was shaved to facilitate a surgical operation and suturing, and observation. A small amount (3 μl) of a 2% methylene blue solution was injected into the top of the right foot, and then the injected site was massaged for 3 minutes to allow the staining dye to spread well through the lymphatic vessels. […]
Each of PBS, hyaluronidase and butein was administered into an edema site of the mouse prepared in Example 1 at 15 mg per kg a day, and the size of edema was measured each day.
The cross-sectional area of lymphedema was calculated from the width and length of the thigh and recorded, and thus a change in size of lymphedema during observation was found.
Each of PBS, hyaluronidase and sulfuretin (15 mg/kg/day) was injected into an edema site of the mouse prepared in Example 1, and the size of edema was measured every day.
FIG. 8 illustrates the inhibition of lymphedema by sulfuretin, and the size measurement was performed on a thigh area present between the knee and the trunk of the lymphedema-induced site of the experimental animal using a caliper. The cross-sectional area of lymphedema was calculated from the width and length of the thigh and recorded, and thus a change in the lymphedema size that occurs in observation was found.
Each of PBS, hyaluronidase and isoflavone (100 mg/kg/day) was injected into an edema site of the mouse prepared in Example 1, and the size of edema was measured every day. […]

[2] = test system: PPAR-γ mRNA; experiment: PPAR-γ mRNA in lymphedema tissue by real time PCR; format: in vivo, mouse
Procedure: as §1
Specifically, a mouse was anesthetized with the anesthetic drugs (Zoletil50, Rompun), and its chest was shaved to facilitate a surgical operation and suturing, and observation. […]
In this example, to investigate a mechanism for inducing reduction in lymphedema, expression of an adipocyte-related marker greatly found in edema was examined. […] An edema tissue was collected, and mRNAs of adipocyte markers such as PPAR-γ and aP2 that are greatly found in edema were quantitatively analyzed by real time PCR, the result of which is shown in FIG. 2 (normal control: control group in which edema was not induced (n=3), edema+PBS: group into which PBS was injected after edema induction (n=4), edema+butein: group into which butein was injected after edema induction (15 mg/kg/day) (n=5)). […]

[3] = test system: lymphedema-induced mouse; experiment: Lymphedema reduction after subcutaneous injection for 5 days (leg images); format: in vivo; conditions: compared to control group
Procedure: as §1
Specifically, a mouse was anesthetized with the anesthetic drugs (Zoletil50, Rompun), and its chest was shaved to facilitate a surgical operation and suturing, and observation. A small amount (3 μl) of a 2% methylene blue solution was injected into the top of the right foot, and then the injected site was massaged for 3 minutes to allow the staining dye to spread well through the lymphatic vessels. To minimize inflammation which may be caused when lymph nodes in a groin region were excised and lymphatic vessels in a thigh were blocked, a minimum area of the right groin was incised open. Afterward, a superficial inguinal node and popliteal node, and a deep inguinal node, which were stained with methylene blue, were sequentially removed, and the stained lymphatic vessels in the right thigh were blocked using a soldering iron. Since 70 to 80% of the total lymphatic vessels were present in a subcutaneous region, the subcutaneous region in a suturing site was seared with the soldering iron to completely block the lymphatic system under the suturing site, and the right thigh was finally closed by suturing. About 3 days later, an increase in edema was confirmed.
Butein (15 mg/kg/day) was administered into an animal in which lymphedema was induced by lymph excision in Example 1 by subcutaneous injection for 5 days, and the result is shown in FIG. 3. […]

[4] = test system: aP2 mRNA; experiment: aP2 mRNA in lymphedema tissue by real time PCR; format: in vivo, mouse
Procedure: as §1
as §2, with “vessels. To minimize inflammation which may be caused when lymph nodes in a groin region were excised and lymphatic vessels in a thigh were blocked, a minimum area of the right groin was incised open.” for “vessels.”
In this example, to investigate a mechanism for inducing reduction in lymphedema, expression of an adipocyte-related marker greatly found in edema was examined. […] An edema tissue was collected, and mRNAs of adipocyte markers such as PPAR-γ and aP2 that are greatly found in edema were quantitatively analyzed by real time PCR, the result of which is shown in FIG. […]
In this example, to investigate a mechanism for inducing reduction in lymphedema, expression of an adipocyte-related marker easily found in edema was examined. […] An edema tissue was collected, and mRNAs of adipocyte markers such as PPAR-γ and aP2, which are greatly found in edema, were quantitatively analyzed by real time PCR, and the result is shown in FIG. […]

[5] = test system: aP2 mRNA; experiment: aP2 mRNA in lipedema tissue; format: in vivo, mouse; conditions: butein injected for 14 days
Procedure: (§3) Lymph nodes were removed from a mouse leg by a similar method to the method described in Example 1 to induce lipedema in the experimental animal, and an increase in edema was confirmed about 3 days after the removal of the lymph nodes.
(§4) In this example, to investigate a mechanism for inducing the reduction of lipedema, expression of an adipocyte-related marker that is easily found in lipedema was examined. An edema tissue was isolated after butein was injected into lipedema for 14 days, and mRNAs of adipocyte markers, PPAR-γ and aP2, isolated from total RNA were quantified, and the result is shown in FIG. 7. Referring to FIG. 7, it could be confirmed that butein reduced the expression of PPAR-γ and aP2. Therefore, it can be seen that the inhibition of adipocytes by the butein administration has an influence on lipedema reduction.

[6] = test system: lipedema-induced mouse; experiment: Lipedema size after injection into the edema site of lipedema-induced mice (caliper, thigh cross-sectional area); format: in vivo; conditions: 15 mg/kg/day injected into edema site, measured every day, versus untreated experimental group
Procedure: as §3
PBS (control) or butein (15 mg/kg/day) was injected into an edema site of the lipedema-induced mouse prepared in Example 5, and the edema size was measured every day.
A thigh area present between the knee and the trunk of the lipedema-induced site of the experimental animal was measured using a caliper. The cross-sectional area of lipedema was calculated from the width and length of the thigh and recorded, and thus a change in size of lipedema during observation was found.

[7] = test system: PPAR-γ mRNA; experiment: PPAR-γ mRNA in lipedema tissue; format: in vivo, mouse; conditions: butein injected for 14 days
Procedure: as §3, §4

[8] = 15 mg/kg/day injected into edema site
[9] = 15 mg/kg/day subcutaneous injection for 5 days

Compound | size of lymphedema ([1]; 100 mg/kg/day injected into edema site) | mRNA expression of PPAR-γ in edema tissue ([2]; 100 mg/kg/day for 14 days) | size of lymphedema ([3]; 100 mg/kg/day subcutaneous injection for 5 days) | mRNA expression of aP2 in edema tissue ([4]; 100 mg/kg/day for 14 days) | mRNA expression of aP2 in edema tissue [5] | size of lymphedema [1, 8] | mRNA expression of PPAR-γ in edema tissue ([2]; 15 mg/kg/day for 14 days) | edema size (lipedema) [6] | size of lymphedema [3, 9] | mRNA expression of aP2 in edema tissue ([4]; 15 mg/kg/day for 14 days) | mRNA expression of PPAR-γ in edema tissue [7]
O=c1c(-c2ccccc2)coc2ccccc12 [isoflavone] | significantly reduced | inhibits | significantly reduced | inhibits |  |  |  |  |  |  | 
O=C(/C=C/c1ccc(O)c(O)c1)c1ccc(O)cc1O [butein] |  |  |  |  | reduced | significantly reduced | inhibits | more rapidly and greatly reduced | significantly reduced | inhibits | reduced
O=C1/C(=C/c2ccc(O)c(O)c2)Oc2cc(O)ccc21 [sulfuretin] |  |  |  |  |  | significantly reduced |  |  | significantly reduced | inhibits | 

Source: US20160081974A1, “COMPOSITION FOR PREVENTING OR TREATING EDEMA CONTAINING FLAVONOID COMPOUND” (Research & Business Foundation SUNGKYUNKWAN UNIVERSITY, priority 2014, published 2016)
